Measured values reported in ChEMBL document CHEMBL1221299, “Unnatural enantiomer of chaetocin shows strong apoptosis-inducing activity through caspase-8/caspase-3 activation” (Bioorg Med Chem Lett, 2010).
The source made the active and inactive calls. The calls are words filed in the database; no cut-off is given here.

Legend:
Format in all cases: functional, cell-based
[1] = tested on: HL-60; assay: Induction of apoptosis in human HL60 cells assessed as activation of caspase 3 at 0.3 uM after 2 hrs by Western blot analysis in presence of caspase 9 inhibitor […]
[2] = tested on: HL-60; assay: Potentiation of FAS-ligand-induced apoptosis in human HL60 cells at 30 uM
[3] = tested on: HL-60; assay: Induction of apoptosis in human HL60 cells assessed as activation of caspase 3 at 0.3 uM after 2 hrs by Western blot analysis in presence of caspase 8 inhibitor Z-IETD
[4] = tested on: HL-60; assay: Induction of apoptosis in human HL60 cells assessed as nuclear fragmentation at 0.3 uM after 4 hrs using DAPI/PI by confocal laser microscopy analysis
[5] = tested on: HL-60; assay: Induction of apoptosis in human HL60 cells assessed as DNA ladder formation at 0.3 uM after 4 hrs by DNA electrophoresis
[6] = tested on: HL-60; assay: Induction of apoptosis in human HL60 cells assessed as necrotic cell death at 30 uM after 4 hrs using DAPI/PI by confocal laser microscopy analysis
[7] = tested on: HL-60; assay: Induction of apoptosis in human HL60 cells at 0.3 uM in presence of caspase 8 inhibitor Z-IETD
[8] = tested on: HL-60; assay: Induction of apoptosis in human HL60 cells assessed as activation of caspase 3 at 0.3 uM after 2 hrs by Western blot analysis
[9] = tested on: HL-60; assay: Induction of apoptosis in human HL60 cells assessed as increase of cellular ROS level
[10] = tested on: HL-60; assay: Induction of apoptosis in human HL60 cells assessed as activation of caspase 3 at 0.3 uM after 2 hrs by Western blot analysis in presence of caspase inhibitor Z-VAD
[11] = tested on: HL-60; assay: Induction of apoptosis in human HL60 cells at 0.3 uM in presence of caspase 9 inhibitor […]
[12] = tested on: HL-60; assay: Potentiation of TNF-alpha-ligand-induced apoptosis in human HL60 cells at 30 uM
[13] = tested on: HL-60; assay: Induction of apoptosis in human HL60 cells assessed as DNA ladder formation at 30 uM after 4 hrs by DNA electrophoresis
[14] = tested on: HL-60; assay: Induction of apoptosis in human HL60 cells assessed as reduction of cell viability at up to 30 uM after 4 hrs by alamar blue assay
[15] = tested on: HL-60; assay: Induction of apoptosis in human HL60 cells assessed as reduction of cell viability after 4 hrs by alamar blue assay

## CN1C(=O)[C@]23C[C@@]4([C@@]56C[C@]78SS[C@](CO)(C(=O)N7[C@@H]5Nc5ccccc56)N(C)C8=O)c5ccccc5N[C@H]4N2C(=O)[C@@]1(CO)SS3
[1]
  Activity: Active
[2]
  Activity: inactive
[3]
  Activity: inactive
[4]
  Activity: Active
[5]
  Activity: Active
[6]
  Activity: Active
[7]
  Activity: inactive
[8]
  Activity: Active
[9]
  Activity: inactive
[10]
  Activity: inactive
[11]
  Activity: Active
[12]
  Activity: inactive
[13]
  Activity: inactive

## CN1C(=O)[C@H]2C[C@]3([C@]45C[C@@H]6C(=O)N(C)[C@H](CO)C(=O)N6[C@H]4Nc4ccccc45)c4ccccc4N[C@@H]3N2C(=O)[C@H]1CO
[14]
  Activity: inactive

## CN1C(=O)[C@@]23C[C@]4([C@]56C[C@@]78SS[C@@](CO)(C(=O)N7[C@H]5Nc5ccccc56)N(C)C8=O)c5ccccc5N[C@@H]4N2C(=O)[C@]1(CO)SS3
[4]
  Activity: Active
[5]
  Activity: inactive
[6]
  Activity: Active
[8]
  Activity: Active
[9]
  Activity: inactive
[15]
  Activity: Dose-dependent effect
